What was measured:
[1] = test system: Human Colon Cancer HT-29 Xenografts; experiment: Human colon cancer HT-29 xenografts in nude mice (Example 3); type: in vivo; conditions: 5 mg/kg i.v.
Method: (§1) Before commencement of this study, the xenografts were passaged twice in nude mice. Under sterile conditions, well-grown tumors were cut into 1.5 mm^3 fragments and one such fragment was injected by trocar needle into the right flank of each study animal. […] Individual tumor size (length and width) was measured twice per week with microcalipers. Tumor volume (V) was calculated using the formula: V=(length×width^2)/2. Individual relative tumor volume (RTV) was calculated using the formula: RTV=Vt/V0, where Vt is the tumor volume on the day of measurement and V0 is the tumor volume on the day of first treatment. Therapeutic effect of the test article or control article was expressed in terms of TIC (%), using the formula: TIC (%) (mean RTV of the treated group/mean RTV of the control group)×100%; and in terms of % Inhibition, using the formula: % Inhibition=100%−T/C %.
Then, 1.5 mm^3 fragments were prepared for s.c. implantation into the test animals.

human hepatoma SMMC-7721 = experiment: Human hepatoma SMMC-7721 xenografts in nude mice (Example 1); type: in vivo; conditions: 5 mg/kg i.v.
Method: The test article was used without dilution. It was stored at 4° C. until thawed for injection.
The animals used were 4-6 weeks old male BALB/cA nu/nu mice, weighing about 23±2 g, obtained from the Shanghai Institute of Materia Medica (Shanghai, P.R. China). The study protocol was reviewed by the Committee on the Use and Care of Animals of Shanghai Institute of Materia Medica for compliance with regulations, and Committee approval was obtained prior to study initiation. Wherever possible, procedures used in this study were designed to avoid or minimize discomfort, distress, and pain to the animals. Animals that experience severe or chronic pain or distress that could not be relieved were painlessly euthanized, in accordance to regulations. Animals were housed 6 to a cage. They were ear-marked with ear hole punch identification. The room temperature was maintained at 25° C.±1° C. Lighting was set at 12 hr on and 12 hr off. Food was provided ad libitum. City tap water, filtered with a 5 micrometer (μm) filter, was provided to the animals ad libitum via water bottles. Neither the Study Director nor Huiyang Life Science and Technology Corp. was aware of any contaminant in the food or water that would interfere with or influence the intent and purpose of this study.
The test article (rSIFN-co) and the vehicle control were each administered intratumorally (i.t.). The test article was administered in a volume of 0.05 ml-0.15 ml per mouse per treatment, depending on the group to which the animal was assigned. […] Normal saline was injected in a volume of 0.15 ml per mouse, which was used as vehicle control.
Animals were assigned to treatment groups randomly. Initially, all animals were placed in one large animal cage. For assignment to the study, they were later separately housed, with 6 animals per cage per treatment group. Groups 1 and 2 are Control groups in which the animals were each administered the vehicle every other day after the first treatment. […] The animals in Groups 4, 5 and 6 were each given rSIFN-co every other day after the first treatment at 0.15 mg/mouse (Group 4) or 0.10 mg/mouse (Group 5) or 0.05 mg/mouse (Group 6), respectively. Tumor growth was monitored by measuring the length and width of each tumor twice a week during the course of the study. Each animal was also weighed twice a week during the course of the study.
as §1

[2] = test system: human lung cancer SPC-A4 xenografts; experiment: Human lung cancer SPC-A4 xenografts in nude mice (Example 4); type: in vivo; conditions: 5 mg/kg i.v.
Method: as §1
The 1.5 mm^3 fragments were then used for s.c. implantation into the test animals.

[3] = test system: Human Cervical Cancer Hela Xenografts; experiment: Human cervical cancer Hela xenografts in nude mice (Example 2); type: in vivo; conditions: 5 mg/kg i.v.
Method: as §1
Then 1.5 mm^3 fragments were prepared for s.c. implantation into the animals.

[4] = test system: procaspase-3, cleaved caspase-3, procaspase-8, cleaved caspase-8, PARP in SW620 cells; experiment: Apoptosis-related molecular markers by Western Blot; type: cell-based, human; conditions: 24 hr or 48 hr; interferons at 10 mcg/ml
Source text: (§2) Thereafter, apoptosis-related molecular markers were monitored by Western Blot. The primary antibodies used were mouse monoclonal anti-beta-tubulin (1:2000, Cat #: CW0098A) and mouse monoclonal anti-GAPDH (1:2000, Cat #: CW0100A) (Kangwei Biotechnology, China); mouse monoclonal anti-PARP (1:1000, Cat #: se-2007, Santa Cruz Biotechnology, Inc.); rabbit monoclonal anti-procaspase 3 (1:1000, Cat #: 9665), and rabbit polyclonal anti-cleaved caspase 3 (1:1000, Cat #: 9661) (Cell Signaling Technology, USA); goat polyclonal anti-procaspase 8 (1:1000, Cat #: sc-6136, Santa Cruz Biotechnology, Inc); rabbit monoclonal anti-cleaved caspase 8 (1:1000, Cat #: 9496) (Cell Signaling Technology, USA).

[5] = test system: procaspase-3, cleaved caspase-3, procaspase-8, cleaved caspase-8, PARP in A549 cells; experiment: as above; type: cell-based, human; conditions: 24 hr or 48 hr; interferons at 10 mcg/ml
Source text: as §2

| SMILES | TV (mm^3, mean ± SD) (D0) ([1]; day 0, start of treatment) [mm^3] | TV (mm^3, mean ± SD) (D28) ([1]; day 28) [mm^3] | TV (mm^3, mean ± SD) (D0) (human hepatoma SMMC-7721; day 0, start of treatment) [mm^3] | TV (mm^3, mean ± SD) (D21) (human hepatoma SMMC-7721; day 21) [mm^3] | TV (mm^3, mean ± SD) (D0) ([2]; day 0, start of treatment) [mm^3] | TV (mm^3, mean ± SD) (D21) ([2]; day 21) [mm^3] | TV (mm^3, mean ± SD) (D0) ([3]; day 0, start of treatment) [mm^3] | TV (mm^3, mean ± SD) (D28) ([3]; day 28) [mm^3] | level of apoptosis-related molecular markers (procaspase-3, procaspase-8, PARP, cleaved caspase-3, cleaved caspase-8) [4] | level of apoptosis-related molecular markers (procaspase-3, procaspase-8, PARP, cleaved caspase-3, cleaved caspase-8) [5] |
| --- | --- | --- | --- | --- | --- | --- | --- | --- | --- | --- |
| CO[C@@]12[C@H](COC(N)=O)C3=C(C(=O)C(C)=C(N)C3=O)N1C[C@@H]1N[C@@H]12 [MMC, Mitomycin C, reference compound] | 132 ± 22 | 395 ± 95 | 125 ± 35 | 621 ± 247 | 166 ± 42 | 1831 ± 540 | 130 ± 28 | 676 ± 358 | – | – |
| O=c1[nH]cc(F)c(=O)[nH]1 [5FU, reference compound] | – | – | – | – | – | – | – | – | significant reduction of in the level of procaspase-3, procaspase-8 and PARP, but exhibited an enhanced level of cleaved caspase-3 and cleaved caspase-8 | significant reduction of in the level of procaspase-3, procaspase-8 and PARP, but exhibited an enhanced level of cleaved caspase-3 and cleaved caspase-8 |
